From PubChem BioAssay AID2742 (NMMLSC, 2010)
Active and inactive are the calls of the source.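 The calls were made as follows: active = fitted half-maximal concentration for changing background-corrected GFP signal at or below a set limit; inactive = the rest.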

Assay: TOR pathway reporter MEP2-GFP, concentration series – S. cerevisiae, flow cytometry GFP, MLPCN hits, dose response (AID 2742);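 also: GFP tag reports level of MEP2 protein as a downstream target of TOR signalling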
Conditions: S. cerevisiae MEP2-GFP strain, flow cytometry fluorescence, 3 h; at 33 µM (top of the series)

O=C1N(c2ccccc2C(F)(F)F)OC1(Cc1ccccc1)c1ccccc1 (configuration not stated)
GFP fluorescence (kMESF), higher = increase: 2.86 kMESF (inactive)

COc1cccc2c(=O)c(C(=O)NCc3cccs3)c[nH]c12
GFP fluorescence (kMESF), higher = increase: 1.57 kMESF (inactive)

CC[C@]1(c2ccccc2C)ON(c2ccccc2C(F)(F)F)C1=O
GFP fluorescence (kMESF), higher = increase: 1.97 kMESF (inactive)

O=C(/C=C/c1ccccc1Cl)c1ccccc(=O)c1O
GFP fluorescence (kMESF), higher = increase: -0.57 kMESF (inactive)

O=C(/C=C/c1cccc(Cl)c1)c1nc2ccccc2[nH]1
GFP fluorescence (kMESF), higher = increase: 3.3 kMESF (inactive)

N/C(Cc1ccc(Cl)cc1Cl)=N\OC(=O)c1ccccc1
GFP fluorescence (kMESF), higher = increase: 2.82 kMESF (inactive)

O=[N+]([O-])c1ccc(S(=O)(=O)c2ccccc2)nc1
GFP fluorescence (kMESF), higher = increase: 5.25 kMESF (inactive)

O=C1C=CC(=O)N1N(c1ccccc1)c1ccccc1
GFP fluorescence (kMESF), higher = increase: 4.7 kMESF (inactive)

O=C(O)c1ccn2c(C(=O)c3ccccc3)c(-c3ccccc3)cc2c1
GFP fluorescence (kMESF), higher = increase: 3.13 kMESF (inactive)

C=CCN1C(=O)/C(=C/c2cccs2)C(=O)NC1=S
GFP fluorescence (kMESF), higher = increase: 3.81 kMESF (inactive)

COC(=O)CCC(=O)OC1(C)C(=O)C2=COC(c3ccc(OC)cc3)=CC2=C(Br)C1=O (configuration not stated)
GFP fluorescence (kMESF), higher = increase: 0.26 kMESF (inactive)

Cc1[nH][nH]c(=O)c1C(c1ccc(-c2ccc(Cl)c(Cl)c2)o1)c1c(C)[nH][nH]c1=O
GFP fluorescence (kMESF), higher = increase: 4.42 kMESF (inactive)

CCOC(=O)c1cc(-c2ccc(/C=C3/C(=O)NC(=O)C(C#N)=C3C)o2)ccc1Cl
GFP fluorescence (kMESF), higher = increase: 6.22 kMESF (inactive)

CC(=O)N(C(C)=O)c1ncnc2c1c(-c1ccc(Cl)cc1)nn2C(C)(C)C
GFP fluorescence (kMESF), higher = increase: 1.85 kMESF (inactive)

Cc1ccc(C)c(/C=C/C(=O)c2ccccc(=O)c2O)c1
GFP fluorescence (kMESF), higher = increase: -0.95 kMESF (inactive)

CC(C)Oc1ccc(C(=O)/C=C2/C(=O)Nc3ccccc32)cc1
GFP fluorescence (kMESF), higher = increase: 3.75 kMESF (inactive)

O=C1N(c2ccccc2C(F)(F)F)O[C@]1(c1ccccc1)C1CCCCC1
GFP fluorescence (kMESF), higher = increase: 3.28 kMESF (inactive)

COc1ccc2c(c1)c(/C=C/c1cc[n+](C)cc1)cn2C
GFP fluorescence (kMESF), higher = increase: 4.56 kMESF (inactive)

Cc1cccc(/C=C/C(=O)c2ccc([N+](=O)[O-])o2)c1
GFP fluorescence (kMESF), higher = increase: 5.78 kMESF (inactive)

CSC1=NS(=O)(=O)c2c(C)nn(C)c2S1
GFP fluorescence (kMESF), higher = increase: 4.13 kMESF (inactive)

COc1ccc(C2=CC(=O)N(Nc3ccccc3)C2=O)cc1
GFP fluorescence (kMESF), higher = increase: 6.84 kMESF (inactive)

Oc1c(CN2CCCCC2)cc(Br)c2cccnc12
GFP fluorescence (kMESF), higher = increase: 5.16 kMESF (inactive)

COc1ccc(C(=O)NNC(=S)NC(=O)/C=C/c2cccs2)cc1
GFP fluorescence (kMESF), higher = increase: 5.04 kMESF (inactive)

Cc1ccc(NC(=O)c2nc(S(=O)(=O)Cc3ccccc3)ncc2Cl)cc1
GFP fluorescence (kMESF), higher = increase: 3.33 kMESF (inactive)

Cc1cccc2c1NC(=O)/C2=C\C(=O)c1cccs1
GFP fluorescence (kMESF), higher = increase: 4.26 kMESF (inactive)

C/C(=N\NC(=O)c1cccc(Br)c1)c1ccccn1
GFP fluorescence (kMESF), higher = increase: 4.33 kMESF (inactive)

O=C(/C=C/c1ccccc1[N+](=O)[O-])c1ccccc1Br
GFP fluorescence (kMESF), higher = increase: 62.3 kMESF (inactive)

O=C1C=CC(=O)N1c1ccc(N2CCCCC2)cc1
GFP fluorescence (kMESF), higher = increase: 5.69 kMESF (inactive)

O=C(/C=C/c1ccccc1)c1cc(Br)ccc(=O)c1O
GFP fluorescence (kMESF), higher = increase: -11.3 kMESF (inactive)

CCCCc1ccc(NC(=O)CC(C)=O)cc1
GFP fluorescence (kMESF), higher = increase: 2.02 kMESF (inactive)

O=C1NC(=O)N(CCc2ccc(F)cc2)C(=O)/C1=C/c1cccs1
GFP fluorescence (kMESF), higher = increase: 4.39 kMESF (inactive)

O=C(COc1ccc(F)cc1Cl)Nc1nc(-c2ccccn2)cs1
GFP fluorescence (kMESF), higher = increase: 4.88 kMESF (inactive)

Oc1c(Br)cc(Br)cc1C=Nc1ccc2[nH]ncc2c1
GFP fluorescence (kMESF), higher = increase: 5.46 kMESF (inactive)

CC(C)(C)C(=O)C(Cl)C(=O)Nc1ccccc1 (configuration not stated)
GFP fluorescence (kMESF), higher = increase: 4.12 kMESF (inactive)

[O-][n+]1cccc2c(Br)cc(Br)c(O)c21
GFP fluorescence (kMESF), higher = increase: 5.76 kMESF (inactive)

Cc1ccsc1/C=N/Nc1ncc(Cl)cc1Cl
GFP fluorescence (kMESF), higher = increase: 5.19 kMESF (inactive)

CN(C)c1ccc(N=Cc2nc(-c3ccccc3)oc2OC(=O)c2cccc(Cl)c2)cc1
GFP fluorescence (kMESF), higher = increase: 3.27 kMESF (inactive)

CCOC(=O)C1=C(O)c2ccccc2C(=O)/C1=C\c1ccc(C)cc1
GFP fluorescence (kMESF), higher = increase: -34.5 kMESF (inactive)

Cc1ccc(C(=O)NNC(=S)NC(=O)COc2ccccc2)cc1
GFP fluorescence (kMESF), higher = increase: 6.29 kMESF (inactive)

O=C(Cc1ccc(Cl)cc1)NNC(=S)NC(=O)c1cccs1
GFP fluorescence (kMESF), higher = increase: 6.72 kMESF (inactive)

CC(c1ccccc1)N1C(=O)/C(=C/c2ccncc2)SC1=S (configuration not stated)
GFP fluorescence (kMESF), higher = increase: 2.87 kMESF (inactive)

CC[C@@]1(c2ccccc2OC)ON(c2ccccc2C(F)(F)F)C1=O
GFP fluorescence (kMESF), higher = increase: 3.17 kMESF (inactive)

COc1ccccc1[C@@]1(C)ON(c2ccccc2C(F)(F)F)C1=O
GFP fluorescence (kMESF), higher = increase: 5.08 kMESF (inactive)

COc1ccc(/C=C/C(=O)C2C(=O)C=C(C)OC2=O)cc1O (configuration not stated)
GFP fluorescence (kMESF), higher = increase: 5.45 kMESF (inactive)

O=C1C=CC(=O)N1c1ccc(OC(F)F)cc1
GFP fluorescence (kMESF), higher = increase: 3.81 kMESF (inactive)

CCCCS(=O)(=O)/C=C\C=C/S(=O)(=O)CCCC
GFP fluorescence (kMESF), higher = increase: 5.41 kMESF (inactive)

CCCN1CCc2c(sc(NC(=S)NC(=O)c3ccccc3)c2C#N)C1
GFP fluorescence (kMESF), higher = increase: 4.04 kMESF (inactive)

Cc1cc(NC(=O)c2cccnc2Cl)ccc1NC(=O)c1cc2ccccc2o1
GFP fluorescence (kMESF), higher = increase: 3.21 kMESF (inactive)

Cc1c(Br)c(=O)oc2c(Br)c(O)c(O)cc12
GFP fluorescence (kMESF), higher = increase: 2.07 kMESF (inactive)

Cc1ccc(NC(=O)ON=C2CCCC2)cc1
GFP fluorescence (kMESF), higher = increase: 3.26 kMESF (inactive)

CCSc1nnc(NC(=O)c2ccccn2)s1
GFP fluorescence (kMESF), higher = increase: 4.39 kMESF (inactive)

Cc1ccc(-c2nc(N)c3c(-c4ccc(C)cc4)nn(C(C)(C)C)c3n2)cc1
GFP fluorescence (kMESF), higher = increase: 1.65 kMESF (inactive)

Cc1cccc(N=Nc2ccc(O)c3ncccc23)c1
GFP fluorescence (kMESF), higher = increase: 3.18 kMESF (inactive)

O=C(Nc1nnc(-c2ccc(Cl)cc2)o1)c1ccccc1Br
GFP fluorescence (kMESF), higher = increase: 4.01 kMESF (inactive)

Cc1ccnc(N2C(=O)c3cccc4c([N+](=O)[O-])ccc(c34)C2=O)c1
GFP fluorescence (kMESF), higher = increase: 24.6 kMESF (inactive)

CN1CCN(C(=O)c2cc(COc3c(F)cccc3F)on2)CC1c1ccccc1 (configuration not stated)
GFP fluorescence (kMESF), higher = increase: 5.87 kMESF (inactive)

O=c1oc(/C=C/c2ccc([N+](=O)[O-])s2)nc2ccccc12
GFP fluorescence (kMESF), higher = increase: 5.31 kMESF (inactive)

COc1ccc(/C=C/C(=O)c2cc(Br)ccc(=O)c2O)cc1
GFP fluorescence (kMESF), higher = increase: -51.6 kMESF (inactive)

O=C1C=CC(=O)N1c1ccc(O)cc1
GFP fluorescence (kMESF), higher = increase: 6.77 kMESF (inactive)

CCc1nc2ccccc2c(=O)n1NC(=O)c1c(O)c2cccc3c2n(c1=O)CCC3
GFP fluorescence (kMESF), higher = increase: 1.72 kMESF (inactive)

O=C1NC(=O)N(c2ccccc2)C(=O)/C1=C/c1ccc(Sc2ccccc2)o1
GFP fluorescence (kMESF), higher = increase: 4.03 kMESF (inactive)

CN(C)/C=C/C(=O)c1ccc(-c2ccc(Cl)cc2Cl)o1
GFP fluorescence (kMESF), higher = increase: 2 kMESF (inactive)
